Test results reported in patent US20040138145A1, “Application of intestinal biliary acid reuptake inhibitors for the prevention and treatment of alzheimer's disease” (Aventis Pharma S.A., priority 2002, published 2004).

Legend:
Aβ peptide = test: Cerebral Aβ peptide levels (soluble and total brain fractions) in Tg53 transgenic mice, immunoelectrochemoluminescence assay; assay type: in vivo, mouse; settings: for levels of total Aβ / levels of total Aβ reduced compared with control group: Test 3; for levels of total Aβ: control 108.1±8.5
plasma cholesterol = test: Plasma cholesterol level in Tg53 transgenic mice after treatment in feed; assay type: in vivo, mouse
Method: The compound A in powdered form was mixed at the dose of 0.01% (weight/weight) with standard feed in powdered form.
Transgenic mice Tg53 (overexpressing the human APP transgene carrying the “Swedish” and “London” mutations, (2002 Wirths, et al. (2002). Brain Pathol. 12, 275-286), 8-10 week old females, were treated for 3 weeks. The mice were housed in an individual cage with drink being available ad libitum. Every day, 6 grams of powdered food (supplemented or otherwise with compound A) were distributed in each cage. Two groups of 11 to 12 animals (control regimen or regimen supplemented with compound A) were used. At the end of the treatment, a blood sample was collected and the plasma cholesterol level was determined using an automated device for biological analysis.

## CCCC[C@]1(CC)CS(=O)(=O)c2ccc(N(C)C)cc2[C@@H](c2cccc(NC(=O)CCCCNC[C@H](O)[C@@H](O)[C@H](O)[C@H](O)CO)c2)[C@H]1O [compound A]
Aβ peptide; Test 1, Tg53 females 8-10 weeks old, 0.01% (w/w) in feed, 3 weeks, p=0.0103
  decrease in the cerebral level of soluble Aβ peptide compared to control regimen group: 18%
Aβ peptide; Test 2, female transgenic mice 15.5 weeks old at end of treatment, 0.01% in feed, n=8, control 364.2±40.9
  cerebral levels of total peptide Aβ: 196.3±17.8 ng/g of tissue
Aβ peptide; Test 2, female transgenic mice 15.5 weeks old at end of treatment, 0.01% in feed, p=0.0001
  reduction in the cerebral level of soluble Aβ peptide compared with control regime group: 40%
Aβ peptide; Test 2, female transgenic mice 15.5 weeks old at end of treatment, 0.01% in feed, p=0.0017
  cerebral levels of total peptide Aβ reduced compared with control regime group: 46%
Aβ peptide; 0.0001% in feed, n=8
  levels of total Aβ: 85.4±4.1 ng/g of tissue
Aβ peptide; 0.0001% in feed, p=0.04
  levels of total Aβ reduced compared with control group: 21%
Aβ peptide; 0.001% in feed, n=10
  levels of total Aβ: 86.5±5.9 ng/g of tissue
Aβ peptide; 0.001% in feed, p=0.050
  levels of total Aβ reduced compared with control group: 20%
Aβ peptide; 0.01% in feed, n=10
  levels of total Aβ: 90.5±6.9 ng/g of tissue
Aβ peptide; 0.01% in feed, p=0.123, ns
  levels of total Aβ reduced compared with control group: 16%
Plasma cholesterol; Test 1, Tg53 females 8-10 weeks old, 0.01% (w/w) in feed, 3 weeks, n=11, control 0.72±0.023
  plasma cholesterol level: 0.62 ± 0.030 g/L
Plasma cholesterol; Test 1, Tg53 females 8-10 weeks old, 0.01% (w/w) in feed, 3 weeks, p=0.0154
  plasma cholesterol level reduced compared to control regimen group: 14%
Plasma cholesterol; Test 2, female transgenic mice 15.5 weeks old at end of treatment, 0.01% in feed, n=8, control 0.85±0.03
  plasma cholesterol level: 0.70 ± 0.03 g/L
Plasma cholesterol; Test 2, female transgenic mice 15.5 weeks old at end of treatment, 0.01% in feed, p=0.0037
  plasma cholesterol level reduced compared with control regime group: 18%
